Measurements from ChEMBL document CHEMBL3885881, “DrugMatrix”.

Species on record: Rattus norvegicus
Assay: DrugMatrix - Regimen: Daily Repeat
Format: toxicity, organism-based, Sprague-Dawley
Design: regimen Daily Repeat, gender Male, age 6-8 weeks
Details: in vivo, po, route oral GAVAGE, vehicle 100 % WATER; for ABSOLUTE BASOPHIL / ABSOLUTE EOSINOPHIL / ABSOLUTE LYMPHOCYTE / ABSOLUTE MONOCYTE / ABSOLUTE SEGMENTED NEUTROPHIL / BASOPHIL / EOSINOPHIL / ERYTHROCYTE COUNT / HEMATOCRIT / HEMOGLOBIN / LEUKOCYTE COUNT / LYMPHOCYTE / MEAN CORPUSCULAR HEMOGLOBIN / MEAN CORPUSCULAR HEMOGLOBIN CONCENTRATION / MEAN CORPUSCULAR VOLUME / MONOCYTE / NEUTROPHIL / NUCLEATED RED BLOOD CELLS / PLATELET COUNT: tissue Blood; for ALANINE AMINOTRANSFERASE / ALBUMIN / ALKALINE PHOSPHATASE / ASPARTATE AMINOTRANSFERASE / BLOOD UREA NITROGEN / CARBON DIOXIDE / CHLORIDE / CHOLESTEROL / CREATINE PHOSPHOKINASE / CREATININE / GLUCOSE / LACTATE DEHYDROGENASE / LIPASE / PHOSPHORUS / POTASSIUM / SODIUM / TOTAL BILIRUBIN / TOTAL PROTEIN / URIC ACID: tissue Plasma
[1] = 0 mg/kg, 72 h, dose level Control, time 3 day
[2] = 0 mg/kg, 120 h, dose level Control, time 5 day
[3] = 45 mg/kg, 72 h, dose level Low, time 3 day
[4] = 45 mg/kg, 120 h, dose level Low, time 5 day

## CCOC(N)=O
[1]
  ABSOLUTE BASOPHIL: 0 CELLS/uL
  ABSOLUTE EOSINOPHIL: 123.17 CELLS/uL
  ABSOLUTE LYMPHOCYTE: 12677.83 CELLS/uL
  ABSOLUTE MONOCYTE: 66.17 CELLS/uL
  ABSOLUTE SEGMENTED NEUTROPHIL: 1149.5 CELLS/uL
  BASOPHIL: 0%
  EOSINOPHIL: 0.83%
  ERYTHROCYTE COUNT: 5.26 x10E6/uL
  HEMATOCRIT: 33.07%
  HEMOGLOBIN: 13.43 G/DL
  LEUKOCYTE COUNT: 14.02 x10E3/uL
  LYMPHOCYTE: 90.17%
  MEAN CORPUSCULAR HEMOGLOBIN: 25.62 pg
  MEAN CORPUSCULAR HEMOGLOBIN CONCENTRATION: 40.65 G/DL
  MEAN CORPUSCULAR VOLUME: 63 fL
  MONOCYTE: 0.5%
  NEUTROPHIL: 8.5%
  NUCLEATED RED BLOOD CELLS: 0.17 /100WBC
  PLATELET COUNT: 1142.83 x10E3/uL
  ALANINE AMINOTRANSFERASE: 45.17 u/L
  ALBUMIN: 3.78 G/DL
  ALKALINE PHOSPHATASE: 340.17 u/L
  ASPARTATE AMINOTRANSFERASE: 77.33 u/L
  BLOOD UREA NITROGEN: 14.67 mg/dL
  CARBON DIOXIDE: 28.67 mmol/L
  CHLORIDE: 101.17 MEQ/L
  CHOLESTEROL: 77.67 mg/dL
  CREATINE PHOSPHOKINASE: 263.67 u/L
  CREATININE: 0.15 mg/dL
  GLUCOSE: 169.33 mg/dL
  LACTATE DEHYDROGENASE: 230 u/L
  LIPASE: 9.67 u/L
  PHOSPHORUS: 11.8 mg/dL
  POTASSIUM: 5.91 MEQ/L
  SODIUM: 142.88 MEQ/L
  TOTAL BILIRUBIN: 0.22 mg/dL
  TOTAL PROTEIN: 5.7 G/DL
  URIC ACID: 1.35 mg/dL
[2]
  ABSOLUTE BASOPHIL: 0 CELLS/uL
  ABSOLUTE EOSINOPHIL: 125 CELLS/uL
  ABSOLUTE LYMPHOCYTE: 13809 CELLS/uL
  ABSOLUTE MONOCYTE: 351 CELLS/uL
  ABSOLUTE SEGMENTED NEUTROPHIL: 1581.67 CELLS/uL
  BASOPHIL: 0%
  EOSINOPHIL: 0.67%
  ERYTHROCYTE COUNT: 5.53 x10E6/uL
  HEMATOCRIT: 34.83%
  HEMOGLOBIN: 13.9 G/DL
  LEUKOCYTE COUNT: 15.87 x10E3/uL
  LYMPHOCYTE: 87.5%
  MEAN CORPUSCULAR HEMOGLOBIN: 25.25 pg
  MEAN CORPUSCULAR HEMOGLOBIN CONCENTRATION: 40.08 G/DL
  MEAN CORPUSCULAR VOLUME: 63.05 fL
  MONOCYTE: 2.17%
  NEUTROPHIL: 9.67%
  NUCLEATED RED BLOOD CELLS: 0 /100WBC
  PLATELET COUNT: 1044 x10E3/uL
  ALANINE AMINOTRANSFERASE: 50.67 u/L
  ALBUMIN: 4.33 G/DL
  ALKALINE PHOSPHATASE: 395 u/L
  ASPARTATE AMINOTRANSFERASE: 86 u/L
  BLOOD UREA NITROGEN: 15.33 mg/dL
  CARBON DIOXIDE: 29.33 mmol/L
  CHLORIDE: 101.5 MEQ/L
  CHOLESTEROL: 71.33 mg/dL
  CREATINE PHOSPHOKINASE: 323.17 u/L
  CREATININE: 0.18 mg/dL
  GLUCOSE: 145.67 mg/dL
  LACTATE DEHYDROGENASE: 389.5 u/L
  LIPASE: 9.83 u/L
  PHOSPHORUS: 11.35 mg/dL
  POTASSIUM: 6.39 MEQ/L
  SODIUM: 142.77 MEQ/L
  TOTAL BILIRUBIN: 0.18 mg/dL
  TOTAL PROTEIN: 6.1 G/DL
  URIC ACID: 1.52 mg/dL
[3]
  ABSOLUTE BASOPHIL: 0 CELLS/uL
  ABSOLUTE EOSINOPHIL: 0 CELLS/uL
  ABSOLUTE LYMPHOCYTE: 12480 CELLS/uL
  ABSOLUTE MONOCYTE: 82.67 CELLS/uL
  ABSOLUTE SEGMENTED NEUTROPHIL: 1104 CELLS/uL
  BASOPHIL: 0%
  EOSINOPHIL: 0%
  ERYTHROCYTE COUNT: 5.25 x10E6/uL
  HEMATOCRIT: 34.27%
  HEMOGLOBIN: 13.87 G/DL
  LEUKOCYTE COUNT: 13.67 x10E3/uL
  LYMPHOCYTE: 91.33%
  MEAN CORPUSCULAR HEMOGLOBIN: 26.43 pg
  MEAN CORPUSCULAR HEMOGLOBIN CONCENTRATION: 40.47 G/DL
  MEAN CORPUSCULAR VOLUME: 65.23 fL
  MONOCYTE: 0.67%
  NEUTROPHIL: 8%
  NUCLEATED RED BLOOD CELLS: 0.33 /100WBC
  PLATELET COUNT: 1224 x10E3/uL
  ALANINE AMINOTRANSFERASE: 48.67 u/L
  ALBUMIN: 3.73 G/DL
  ALKALINE PHOSPHATASE: 327 u/L
  ASPARTATE AMINOTRANSFERASE: 72 u/L
  BLOOD UREA NITROGEN: 14 mg/dL
  CARBON DIOXIDE: 31.33 mmol/L
  CHLORIDE: 100.67 MEQ/L
  CHOLESTEROL: 75.67 mg/dL
  CREATINE PHOSPHOKINASE: 181.67 u/L
  CREATININE: 0.14 mg/dL
  GLUCOSE: 154 mg/dL
  LACTATE DEHYDROGENASE: 151.67 u/L
  LIPASE: 10 u/L
  PHOSPHORUS: 12.13 mg/dL
  POTASSIUM: 7.17 MEQ/L
  SODIUM: 142.87 MEQ/L
  TOTAL BILIRUBIN: 0.17 mg/dL
  TOTAL PROTEIN: 5.53 G/DL
  URIC ACID: 1.63 mg/dL
[4]
  ABSOLUTE BASOPHIL: 0 CELLS/uL
  ABSOLUTE EOSINOPHIL: 0 CELLS/uL
  ABSOLUTE LYMPHOCYTE: 10640.67 CELLS/uL
  ABSOLUTE MONOCYTE: 292.67 CELLS/uL
  ABSOLUTE SEGMENTED NEUTROPHIL: 1133.33 CELLS/uL
  BASOPHIL: 0%
  EOSINOPHIL: 0%
  ERYTHROCYTE COUNT: 5.57 x10E6/uL
  HEMATOCRIT: 35.5%
  HEMOGLOBIN: 14.37 G/DL
  LEUKOCYTE COUNT: 12.07 x10E3/uL
  LYMPHOCYTE: 88.67%
  MEAN CORPUSCULAR HEMOGLOBIN: 25.77 pg
  MEAN CORPUSCULAR HEMOGLOBIN CONCENTRATION: 40.47 G/DL
  MEAN CORPUSCULAR VOLUME: 63.8 fL
  MONOCYTE: 2.33%
  NEUTROPHIL: 9%
  NUCLEATED RED BLOOD CELLS: 0 /100WBC
  PLATELET COUNT: 1349.67 x10E3/uL
  ALANINE AMINOTRANSFERASE: 45 u/L
  ALBUMIN: 4.53 G/DL
  ALKALINE PHOSPHATASE: 393.33 u/L
  ASPARTATE AMINOTRANSFERASE: 72 u/L
  BLOOD UREA NITROGEN: 14.67 mg/dL
  CARBON DIOXIDE: 33 mmol/L
  CHLORIDE: 101 MEQ/L
  CHOLESTEROL: 75 mg/dL
  CREATINE PHOSPHOKINASE: 138.67 u/L
  CREATININE: 0.19 mg/dL
  GLUCOSE: 156.33 mg/dL
  LACTATE DEHYDROGENASE: 85.67 u/L
  LIPASE: 10 u/L
  PHOSPHORUS: 11.27 mg/dL
  POTASSIUM: 6.72 MEQ/L
  SODIUM: 144.8 MEQ/L
  TOTAL BILIRUBIN: 0.23 mg/dL
  TOTAL PROTEIN: 6.3 G/DL
  URIC ACID: 1.6 mg/dL
